Where no end group is shown, it is not given here.
Experiments:
[1] = Nitrocefin hydrolysis kinetics (absorbance of degraded nitrocefin at 480 nm; initial rates V0, Michaelis-Menten fit); type: biochemical; design: Initial nitrocefin-degradation reaction rate, V0: unit not given here; conditions: for initial rate of nitrocefin degradation reaction (V0): peptide 170 µM, initial nitrocefin 107 µM, first 15 min (Fig. 3f); for Initial nitrocefin-degradation reaction rate, V0: Hepes pH 7.4, average of the six runs
Description: Nitrocefin, a β-lactam widely used as a surrogate substrate of Penicillin in β-lactamase activity assay, was used as a substrate. NC degradation was monitored for 2 h. Nitrocefin stock solution was dissolved in acetonitrile (20 mM) and then diluted with Hepes buffer (50 mM, pH 7.4) to nitrocefin concentration of 360 µM (further dilutions to lower concentrations were made with the 360 µM NC stock). All nitrocefin samples were kept on ice in cold conditions and any further dilution or mixing was performed in ice-cold conditions to avoid self-hydrolysis background reaction. […] Immediately after mixing the samples, the plate was transferred to 20̊ °C pre-cooled plate reader (Multiskan GO, Thermo Scientific, Waltham, MA) and shaken slowly for 10 s. Then, the absorbance of degraded nitrocefin was measured for 2 h at interval of 20 s at λ = 480 nm. Initial production rates (V0) were calculated by slope of the initial linear range of degraded-nitrocefin production at the first 15 min. The reported results are and average of at least five separate measurements (the exact number of repeats, N, is reported next to the values). Each experiment also included blank samples of nitrocefin substrate diluted with buffer instead of PSMα. […] The initial rate calculations were performed while also subtracting the self-degradation of the substrate, to ensure that this product absorbance is a result of PSMα presence.
The initial rates of degraded-nitrocefin production were calculated from the slopes of the first 15 min of measurement as reported above. The initial rates (V0) were fitted using non-linear regression applied with the solver function in excel, either to Michalis–Menten equation V=Vmax.[S]/(KM+S) Where Vmax. Stands for maximal reaction rate, KM stands for Michalis–Menten constant, [S] stands for the substrate molar concentration. Each initial rate value was presented as average ± SEM. The kinetic parameters were calculated by fitting the data to MM model using non-linear regression, and the confidence intervals for each parameter were calculated accordingly.

[2] = not given; remark: listed apart in the source
[3] = system: O=C(Cc1cccs1)N[C@@H]1C(=O)N2C(C(=O)O)=C(/C=C/c3ccc([N+](=O)[O-])cc3[N+](=O)[O-])CS[C@H]12; experiment: Initial rates of nitrocefin hydrolysis by pre-assembled PSMα peptides (170 µM) followed by absorbance at 480 nm in 50 mM Hepes pH 7.4 at 20 °C, non-linear fit to the Michaelis-Menten equation.; type: biochemical
Description: Measurements of V0 as function of initial substrate (nitrocefin) concentrations (keeping the PSMα concentration constant at 170 µM, assuring amyloid formation, e.g., above the 30 μM threshold) are depicted in Fig. 2c. […] Table S1 summarizes the pertinent enzymatic parameters extracted from the initial reaction rate data in Fig. 2c using non-linear regression fit to a MM reaction model. Figure 2d presents the catalytic efficiencies, calculated for each peptide by dividing the turnover rate by the MM-constant (Kcat/KM), considered a measure for both substrate binding affinity and conversion kinetics into product.
(§1) Nitrocefin, a β-lactam widely used as a surrogate substrate of Penicillin in β-lactamase activity assay, was used as a substrate. NC degradation was monitored for 2 h. Nitrocefin stock solution was dissolved in acetonitrile (20 mM) and then diluted with Hepes buffer (50 mM, pH 7.4) to nitrocefin concentration of 360 µM (further dilutions to lower concentrations were made with the 360 µM NC stock). All nitrocefin samples were kept on ice in cold conditions and any further dilution or mixing was performed in ice-cold conditions to avoid self-hydrolysis background reaction. 120 µL of the pre-cooled nitrocefin solutions were mixed inside precooled clear 96-well plate (Greiner F-bottom) with 60 µL of pre-incubated PSMα solution (510 µM PSMα, incubated in DIW and later buffered in Hepes 50 mM, pH 7.4). Immediately after mixing the samples, the plate was transferred to 20̊ °C pre-cooled plate reader (Multiskan GO, Thermo Scientific, Waltham, MA) and shaken slowly for 10 s. Then, the absorbance of degraded nitrocefin was measured for 2 h at interval of 20 s at λ = 480 nm. Initial production rates (V0) were calculated by slope of the initial linear range of degraded-nitrocefin production at the first 15 min. The reported results are and average of at least five separate measurements (the exact number of repeats, N, is reported next to the values). Each experiment also included blank samples of nitrocefin substrate diluted with buffer instead of PSMα. All presented results include subtraction of buffer control. The initial rate calculations were performed while also subtracting the self-degradation of the substrate, to ensure that this product absorbance is a result of PSMα presence.
The initial rates of degraded-nitrocefin production were calculated from the slopes of the first 15 min of measurement as reported above. […] The kinetic parameters were calculated by fitting the data to MM model using non-linear regression, and the confidence intervals for each parameter were calculated accordingly. […]
Values derive from the fitting of the initial rates to MM model and are presented as calculated-value ± confidence interval. […]

[4] = system: O=C(Cc1cccs1)N[C@@H]1C(=O)N2C(C(=O)O)=C(/C=C/c3ccc([N+](=O)[O-])cc3[N+](=O)[O-])CS[C@H]12; experiment: Source-data fits for PSMα variants (170 µM): initial rates of nitrocefin hydrolysis (up to 240 µM) by absorbance at 480 nm in 50 mM Hepes pH 7.4 at 20 °C.; type: biochemical
Description: as §1
The initial rates of degraded-nitrocefin production were calculated from the slopes of the first 15 min of measurement as reported above. […] The kinetic parameters were calculated by fitting the data to MM model using non-linear regression, and the confidence intervals for each parameter were calculated accordingly.

[5] = type: biochemical; conditions: Fap 20 µM, nitrocefin 100 µM, A480, ten hours (Fig. S3)
Description: Figure S3. Cross-β bacterial amyloids of Pseudomonas Aeruginosa. Fap B and Fap C were incubated for seven days at 37 °C for fibrillation. Then, upon appearance of typical turbidity the samples were diluted and nitrocefin was added to the samples, creating solutions of 20 µM Fap and nitrocefin in concentration of 100 µM. The absorbance of the nitrocefin was recorded in microplate reader at 480 nm for ten hours, resulting low absorbance relatively to the PSMα at close mass concentration (w/v, 300 µM). This comparison was necessary due to the major differences in sequence length of the Fap proteins and the short PSMα3 peptide. The results are shown as absorbance rather than product concentration due to the slight turbidity of the Fap samples.
(1 picture or pasted object on this page, not shown here)

[6] = AVG of runs, fit of V0 vs NC concentration
[7] = Michaelis-Menten fit of nitrocefin titration, single run, block r246-r259
[8] = Michaelis-Menten fit of nitrocefin titration, single run, block r262-r275
[9] = Michaelis-Menten fit of nitrocefin titration, single run, block r278-r291
[10] = Michaelis-Menten fit of nitrocefin titration, single run, block starting r293

Question: Which ATR-FTIR amide-I shoulder does the source give for `CSCC[C@H](N)C(=O)N[C@@H](CCC(=O)O)C(=O)N[C@@H](Cc1ccccc1)C(=O)N[C@H](C(=O)N[C@@H](C)C(=O)N[C@@H](CCCCN)C(=O)N[C@@H](CC(C)C)C(=O)N[C@@H](Cc1ccccc1)C(=O)N[C@@H](CCCCN)C(=O)N[C@H](Cc1ccccc1)C(=O)N[C@H](Cc1ccccc1)C(=O)N[C@@H](CCCCN)C(=O)N[C@@H](CC(=O)O)C(=O)N[C@@H](CC(C)C)C(=O)N[C@@H](CC(C)C)C(=O)NCC(=O)N[C@@H](CCCCN)C(=O)N[C@@H](Cc1ccccc1)C(=O)N[C@@H](CC(C)C)C(=O)NCC(=O)N[C@@H](CC(N)=O)C(=O)N[C@@H](CC(N)=O)C(=O)O)C(C)C` [α3-(d)FF] here?
Answer: 1630 cm⁻¹

Question: And the “initial rate of nitrocefin degradation reaction (V0)” value (shortened to “initial rate”) ([1]; Hepes 50 mM pH 7.4, 20 °C)?
Answer: 30 µM/h

Question: And the ATR-FTIR amide-I peak/maximum [2]?
Answer: 1640 cm⁻¹

Question: For KNKMFGVALFNFGFKEDLLFLK [α3-scrambled], which ATR-FTIR amide-I shoulder is on record?
Answer: 1680 cm⁻¹

Question: What about the “Kcat” value [1, 6] of the same molecule?
Answer: 3362023 s⁻¹

Question: What about the “Vmax” value [1, 6] of the same molecule?
Answer: 31897124362167 µM/h

Question: And the “E [1/Ms] (catalytic efficiency)” value ([1]; AVG of runs, fit of V0 vs nitrocefin (NC) concentration)?
Answer: 0.653 M⁻¹ s⁻¹

Question: And the “Kcat” value [1, 7]?
Answer: 406977 s⁻¹

Question: What about the “Vmax” value [1, 7] of the same molecule?
Answer: 249070136309 µM/h

Question: What about the “Kcat” value [1, 8] of the same molecule?
Answer: 0.0002595 s⁻¹

Question: What about the Km [1, 8] of the same molecule?
Answer: 438 µM

Question: What about the “Vmax” value [1, 8] of the same molecule?
Answer: 158.82 µM/h

Question: What about the “Kcat” value [1, 9] of the same molecule?
Answer: 0.0002595 s⁻¹

Question: And the Km [1, 9]?
Answer: 438 µM

Question: What about the “Vmax” value [1, 9] of the same molecule?
Answer: 158.82 µM/h

Question: What about the “Kcat” value [1, 10] of the same molecule?
Answer: 3.556e-05 s⁻¹

Question: And the Km [1, 10]?
Answer: 37.6 µM

Question: What about the “Vmax” value [1, 10] of the same molecule?
Answer: 21.76 µM/h

Question: What about the “initial rate” value ([1]; Hepes 50 mM pH 7.4, 20 °C) of the same molecule?
Answer: 21 µM/h

Question: And the ATR-FTIR amide-I peak/maximum [2]?
Answer: 1630 cm⁻¹

Question: Which “Initial nitrocefin-degradation reaction rate, V0” value ([1]; PSMα 4.01424 uM, nitrocefin 60 µM) does the source give for MGIIAGIIKVIKSLIEQFTGK [PSMα1] here?
Answer: 0.191

Question: And the “Initial nitrocefin-degradation reaction rate, V0” value ([1]; PSMα 6.02136 uM, nitrocefin 60 µM)?
Answer: -0.01182

Question: And the “Initial nitrocefin-degradation reaction rate, V0” value ([1]; PSMα 9.03205 uM, nitrocefin 60 µM)?
Answer: -0.1032

Question: And the “Initial nitrocefin-degradation reaction rate, V0” value ([1]; PSMα 13.5481 uM, nitrocefin 60 µM)?
Answer: -0.1644

Question: And the “Initial nitrocefin-degradation reaction rate, V0” value ([1]; PSMα 20.3221 uM, nitrocefin 60 µM)?
Answer: -0.2267

Question: What about the “Initial nitrocefin-degradation reaction rate, V0” value ([1]; PSMα 30.4832 uM, nitrocefin 60 µM) of the same molecule?
Answer: -0.2129

Question: And the “Initial nitrocefin-degradation reaction rate, V0” value ([1]; PSMα 45.7247 uM, nitrocefin 60 µM)?
Answer: -0.2655

Question: And the “Initial nitrocefin-degradation reaction rate, V0” value ([1]; PSMα 68.5871 uM, nitrocefin 60 µM)?
Answer: -0.7898

Question: What about the “Initial nitrocefin-degradation reaction rate, V0” value ([1]; PSMα 102.881 uM, nitrocefin 60 µM) of the same molecule?
Answer: 9.2527

Question: What about the “Initial nitrocefin-degradation reaction rate, V0” value ([1]; PSMα 154.321 uM, nitrocefin 60 µM) of the same molecule?
Answer: 10.6002

Question: And the “Initial nitrocefin-degradation reaction rate, V0” value ([1]; PSMα 231.481 uM, nitrocefin 60 µM)?
Answer: 20.6526

Question: And the “Initial nitrocefin-degradation reaction rate, V0” value ([1]; PSMα 347.222 uM, nitrocefin 60 µM)?
Answer: 27.2811

Question: And the “nitrocefin degradation yield (turnover)” value ([1]; nitrocefin 60 µM, PSMα assemblies 350 µM, Hepes 50 mM pH 7.4, 20 °C, A480, monitored 2 h (Fig. 2a))?
Answer: ~ 50%

Question: What about the ATR-FTIR amide-I peak/maximum [2] of the same molecule?
Answer: 1650 cm⁻¹

Question: Which “initial rate” value ([1]; Hepes 50 mM pH 7.4, 20 °C) does the source give for “MQFVAKLFKFFKNLLGKFLGNN-NH2 [α3-cationic]” here?
Answer: around 60 µM/h

Question: What about the ATR-FTIR amide-I peak/maximum [2] of the same molecule?
Answer: 1660 cm⁻¹

Question: With “PSMα1 (Staphylococcus aureus subsp. aureus NCTC 8325)” as the molecule, how does the Km [3] read?
Answer: 200 µM

Question: For “PSMα2 (Staphylococcus aureus subsp. aureus MW2)”, which Km [3] is on record?
Answer: 230 µM

Question: With “PSMα3 (Staphylococcus aureus subsp. aureus NCTC 8325)” as the molecule, how does the Km [3] read?
Answer: 80 µM

Question: Which Km [3] does the source give for “PSMα4 (Staphylococcus aureus subsp. aureus MW2)” here?
Answer: 200 µM

Question: For “a3-cationic (Staphylococcus aureus subsp. aureus NCTC 8325; D13N/E2Q)”, which Km [4] is on record?
Answer: 772.188 µM

Question: What about the Vmax [4] of the same molecule?
Answer: 8.13 µM/min

Question: What about the kcat [4] of the same molecule?
Answer: 0.00116 s⁻¹

B1: FapB: cross-β Pseudomonas Aeruginosa-originated bacterial amyloid (protein, UniProt Q9I2E9 20-189, looked up)
Functional amyloid subunit …: DPLASRNRASIDDSGTYRGNFALNQAAGDAQQQSNVRVVAVGSAALVGSDQRQHLQLDASQPIAASASISGAALRGSGILGVNQGAGLGNQQINAFRLSLSNGPESLDDSVLAQSVALTKVSGSATPVPGGRSVSTDDRAFAGSSGVVQVNQSAGVGNQSMNTLSVRVME
Question: With B1 as the molecule, how does the “nitrocefin degradation by cross-β bacterial amyloids” value [5] read?
Answer: minor nitrocefin degradation

B2: FapC: cross-β Pseudomonas Aeruginosa-originated bacterial amyloid (protein, UniProt Q9I2F0 25-340, looked up)
Functional amyloid subunit …: GNEGGWHPPKPNPQSNNKGGATALVVDTQQNYNNKVSNFGTLNNASVSGSIKDASGNVGVNVAAGDNNQQANAAALASADASFVFGTATASTSVLQSGYGNTLNNYSNPNTASLSNSANNVSGNLGVNVAAGNFNQQKNDLAAAVSNGQYSTAGSAASQTSTGNTTVNSANYAYGGTYVSLKLNADGSYKGTSDQIGDVYLDTWEGQTHPGGSNTGHIDVDSQAQGAKDLNHDGGAFAFKEKGDVDLKGTVSGFIPAIVGFKTPVTNNASLSNSLQNVSGNVGVNIAAGGGNQQSNSLSIAAGCSSCPAGGESLGF
Question: With B2 as the molecule, how does the “nitrocefin degradation by cross-β bacterial amyloids” value [5] read?
Answer: minor nitrocefin degradation
